Assays:
IRAK4 = biological target: T1, IRAK4 (Homo sapiens, UniProt Q9NWZ3); assay: Reaction Biology NanoBRET target engagement assay, IRAK4; type: cell-based; details: transfected HEK-293 cells
T1 sequence (Q9NWZ3 1-460): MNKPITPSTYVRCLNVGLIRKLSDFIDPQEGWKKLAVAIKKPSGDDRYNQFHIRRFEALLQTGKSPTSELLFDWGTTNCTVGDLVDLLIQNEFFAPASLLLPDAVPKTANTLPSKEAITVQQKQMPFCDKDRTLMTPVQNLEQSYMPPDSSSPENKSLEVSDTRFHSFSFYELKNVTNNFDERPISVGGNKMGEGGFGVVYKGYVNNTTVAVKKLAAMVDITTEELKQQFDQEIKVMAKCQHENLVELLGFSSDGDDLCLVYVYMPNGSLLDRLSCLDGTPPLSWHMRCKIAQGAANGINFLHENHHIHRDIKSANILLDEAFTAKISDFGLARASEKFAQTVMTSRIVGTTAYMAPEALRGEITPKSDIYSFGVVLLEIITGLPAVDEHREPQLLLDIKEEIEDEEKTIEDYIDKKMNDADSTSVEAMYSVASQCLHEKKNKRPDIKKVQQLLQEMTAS
From the text: The NanoBRET assay measures kinase engagement in real time in the context of the intact cell. Unlike the previously described biochemical kinase assay methodologies in Examples 26-27, the NanoBRET assay measures the binding and activity characteristics under equilibrium conditions using full-length kinases in the presence of cellular concentrations of ATP in live, uncompromised cells. As such, the assay provides a more relevant assessment of kinase potency and selectivity that would be expected to be observed in the native cellular environment, where potency is often considerably lower than that observed in the isolated biochemical assays (Vasta, J. D. et al., (2018) Cell Chem. Biol. 25, 206-214). The assay uses a Kinase-NanoLuc® fusion vector expressing a kinase protein to which a luciferase tag has been added, a cell-permeant fluorescent NanoBRET™ tracer, a NanoLuc® substrate, and an extracellular NanoLuc® inhibitor. Upon expression of the luciferase-tagged kinase, cells will produce a strong BRET signal only in the presence of the NanoBRET™ tracer. The extracellular NanoLuc® inhibitor ensures that the BRET signal observed emanates only from live cells. Because the BRET signal has tight distance constraints, addition of the test compound will decrease the BRET signal if the compound competes with the NanoBRET™ tracer for binding to the kinase domain. Under the appropriate tracer conditions established by the manufacturer, quantitative intracellular affinity and relative potency can then be determined using Mass Action model equations.
HEK-293 cells were purchased from ATCC. FuGENEHD Transfection Reagent, Kinase-NanoLucfusion plasmids, Transfection Carrier DNA, NanoBRETTracers and dilution buffer, NanoBRETNano-Glo Substrate, Extracellular NanoLucInhibitor were obtained from Promega.
Assays were conducted following Promega assay protocol with some modifications. HEK-293 Cells were transiently transfected with Kinase-NanoLucFusion Vector DNA by FuGENEHD Transfection Reagent. Testing compounds were delivered into 384 well assay plate by Echo 550 (Labcytelnc, Sunnyvale, CA). Transfected cells were harvested and mixed with NanoBRETTracer Reagent and dispensed into 384 well plates and incubated at 37° C. in 5% CO2 cell culture incubator for 1 hour. The NanoBRETNano-Glo Substrate plus Extracellular NanoLucInhibitor Solution were added into the wells of the assay plate and incubated for 2-3 minutes at room temperature. The donor emission wavelength (460 nm) and acceptor emission wavelength (600 nm) were measured in the EnVisionplate reader. The BRET Ratios were calculated. BRET Ratio=[(Acceptor sample÷Donor sample)−(Acceptor no-tracer control÷Donor no-tracer control)]. The IC50 values of compounds were calculated with Prism GraphPad program.
NanoBRET™ Target Engagement Assay Protocol
1. Transient Transfection of HEK-293 Cells NanoLuc® Fusion Vector DNA
• 1). Cultivate HEK-293 cells (70-80% confluence) appropriately prior to assay. Trypsinize and collect HEK-293 cells. • 2). Prepare lipid: DNA complexes as follows: • a. Prepare a […] solution of DNA in Opti-MEM without serum that consists of the following ratios of carrier DNA and DNA encoding NanoLuc® fusion. 9.0 µg/mL of Transfection Carrier DNA, […] of NanoLuc fusion vector DNA and 1 mL of Opti-MEM without phenol red. Mix thoroughly. • b. Add 30 l of FuGENE HD Transfection Reagent into each milliliter of DNA mixture to form lipid: DNA complex. • c. Mix by inversion 10 times. • d. Incubate at ambient temperature for 20 minutes to allow complexes to form. • 3). In a sterile, conical tube, mix 1 part of lipid: DNA complex with 20 parts of HEK-293 cells in suspension. Mix gently by inversion 5 times. • 4). Dispense cells+lipid: DNA complex into a sterile tissue culture dish and incubate for 22-24 hours. 2. Addition of Test Compounds (dry plate shooting)
Each test compound is delivered from the compound source plate to the wells of 384-well white NBS plate by Echo 550.
3. […]

MOLM14 F691L cells = assay: MOLM14 F691L cell viability assay (Cell Titer Glo); type: cell-based
Outline: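 MOLM14 cells carrying FLT3 D835Y or F691L were seeded at 1000 cells/well in RPMI-1640 with 20% FBS and dosed at 22 concentrations, 1:2 dilutions from 10 μM. Viability after 48 h by Cell Titer Glo luminescence; 2.3 μM bortezomib as cytotoxic control.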

| IC50 (IRAK4) [µM] | IC50 (MOLM14 F691L cells; Homo sapiens, MOLM-14, 48 h) [µM] | IC50 (MOLM14 F691L cells; 48 hours) [µM] | SMILES |
| --- | --- | --- | --- |
| < 0.0005 | 0.376 | – | CC(O)(c1cn2c(-c3cccc(N[C@H]4CNC[C@@H]4F)n3)cnc2cn1)C(F)(F)F (single isomer, unassigned) [Compound 77] |
| – | – | 0.299 | CC(O)(c1cn2c(-c3cccc(N[C@H]4CNC[C@@H]4F)n3)cnc2cn1)C(F)(F)F (single isomer, unassigned) [Compound 78] |
| < 0.0005 | 0.196 | – | CC(O)(c1cn2c(-c3cccc(N[C@H]4CNCC[C@@H]4F)n3)cnc2cn1)C(F)(F)F (single isomer, unassigned) [Compound 80] |
| < 0.0005 | 0.211 | – | CC(O)(c1cn2c(-c3cccc(N[C@@H]4CCCNC4)n3)cnc2cn1)C(F)(F)F (single isomer, unassigned) [Compound 81] |
| < 0.0005 | – | 0.157 | CC(O)(c1cn2c(-c3cccc(N[C@H]4CNCC[C@@H]4F)n3)cnc2cn1)C(F)(F)F (single isomer, unassigned) [Compound 82] |
| < 0.0005 | 0.169 | – | CC1(c2cn3c(-c4cccc(N[C@H]5CNC[C@@H]5F)n4)cnc3cn2)CC1 [Compound 1, N-((3S,4S)-4-fluoropyrrolidin-3-yl)-6-(6-(1-methylcyclopropyl)imidazo[1,2-a]pyrazin-3-yl)pyridin-2-amine] |
| < 0.0005 | – | – | CC1(c2cn3c(-c4cccc(N[C@@H]5CCNC5)n4)cnc3cn2)CC1 [Compound 3, (R)-6-(6-(1-methylcyclopropyl)imidazo[1,2-a]pyrazin-3-yl)-N-(pyrrolidin-3-yl)pyridin-2-amine] |
| < 0.0005 | 0.034 | – | CC1(c2cn3c(-c4cccc(N[C@H]5CNCC56CC6)n4)cnc3cn2)CC1 [Compound 5, (R)-N-(6-(6-(1-methylcyclopropyl)imidazo[1,2-a]pyrazin-3-yl)pyridin-2-yl)-5-azaspiro[2.4]heptan-7-amine] |
| – | 0.168 | – | FC(F)(F)C1(c2cn3c(-c4cccc(N[C@@H]5CCNC5)n4)cnc3cn2)CC1 [Compound 10, (R)-N-(pyrrolidin-3-yl)-6-(6-(1-(trifluoromethyl)cyclopropyl)imidazo[1,2-a]pyrazin-3-yl)pyridin-2-amine] |
| < 0.0005 | 0.226 | – | FC(F)c1cn2c(-c3cccc(N[C@H]4CNC[C@@H]4F)n3)cnc2cn1 [Compound 16, 6-(6-(difluoromethyl)imidazo[1,2-a]pyrazin-3-yl)-N-((3S,4S)-4-fluoropyrrolidin-3-yl)pyridin-2-amine] |
| < 0.0005 | 0.074 | – | FC(F)c1cn2c(-c3cccc(N[C@H]4CNCC[C@@H]4F)n3)cnc2cn1 [Compound 25, 6-(6-(difluoromethyl)imidazo[1,2-a]pyrazin-3-yl)-N-((3S,4S)-4-fluoropiperidin-3-yl)pyridin-2-amine] |
| – | 0.381 | – | CC(C)(O)c1cn2c(-c3cccc(N[C@@H]4CCCNC4)n3)cnc2cn1 [Compound 30, (R)-2-(3-(6-(piperidin-3-ylamino)pyridin-2-yl)imidazo[1,2-a]pyrazin-6-yl)propan-2-ol] |
| < 0.0005 | 0.249 | – | CC(C)(O)c1cn2c(-c3cccc(N[C@H]4CNCC[C@@H]4F)n3)cnc2cn1 [Compound 31, 2-(3-(6-(((3S,4S)-4-fluoropiperidin-3-yl)amino)pyridin-2-yl)imidazo[1,2-a]pyrazin-6-yl)propan-2-ol] |
| < 0.0005 | 2.66 | – | CC(C)(O)c1cn2c(-c3nc(N[C@H]4CNC[C@@H]4F)c(F)cc3F)cnc2cn1 [Compound 33, 2-(3-(3,5-difluoro-6-(((3S,4S)-4-fluoropyrrolidin-3-yl)amino)pyridin-2-yl)imidazo[1,2-a]pyrazin-6-yl)propan-2-ol] |
| < 0.0005 | 1.33 | – | CC(C)(O)c1cn2c(-c3nc(N[C@@H]4CCCNC4)c(F)cc3F)cnc2cn1 [Compound 34, (R)-2-(3-(3,5-difluoro-6-(piperidin-3-ylamino)pyridin-2-yl)imidazo[1,2-a]pyrazin-6-yl)propan-2-ol] |
| < 0.0005 | 0.841 | – | CC(C)(O)c1cn2c(-c3nc(N[C@H]4CNCC[C@@H]4F)c(F)cc3F)cnc2cn1 [Compound 35, 2-(3-(3,5-difluoro-6-(((3S,4S)-4-fluoropiperidin-3-yl)amino)pyridin-2-yl)imidazo[1,2-a]pyrazin-6-yl)propan-2-ol] |
| < 0.0005 | – | – | FC(F)(F)COc1cn2c(-c3cccc(N[C@@H]4CCNC4)n3)cnc2cn1 [Compound 38, (R)-N-(pyrrolidin-3-yl)-6-(6-(2,2,2-trifluoroethoxy)imidazo[1,2-a]pyrazin-3-yl)pyridin-2-amine] |
| 0.084 | 0.079 | – | Cn1cc(-c2cn3c(-c4cccc(N[C@@H]5CCCNC5)n4)cnc3cn2)cn1 [Compound 43, (R)-6-(6-(1-methyl-1H-pyrazol-4-yl)imidazo[1,2-a]pyrazin-3-yl)-N-(piperidin-3-yl)pyridin-2-amine] |
| 0.001 | 0.192 | – | F[C@H]1CNC[C@@H]1Nc1cccc(-c2cnc3cnc(C4CC4)cn23)n1 [Compound 50, 6-(6-cyclopropylimidazo[1,2-a]pyrazin-3-yl)-N-((3S,4S)-4-fluoropyrrolidin-3-yl)pyridin-2-amine] |
| 0.0006 | 0.053 | – | F[C@H]1CCNC[C@@H]1Nc1cccc(-c2cnc3cnc(C4CC4)cn23)n1 [Compound 51, 6-(6-cyclopropylimidazo[1,2-a]pyrazin-3-yl)-N-((3S,4S)-4-fluoropiperidin-3-yl)pyridin-2-amine] |
| – | 0.106 | – | Cn1cc(-c2cn3c(-c4cccc(N[C@H]5CNC[C@@H]5F)n4)cnc3cn2)cn1 [Compound 52, N-((3S,4S)-4-fluoropyrrolidin-3-yl)-6-(6-(1-methyl-1H-pyrazol-4-yl)imidazo[1,2-a]pyrazin-3-yl)pyridin-2-amine] |
| < 0.0005 | – | – | FC(F)COc1cn2c(-c3cccc(N[C@H]4CNC[C@@H]4F)n3)cnc2cn1 [Compound 58, 6-(6-(2,2-difluoroethoxy)imidazo[1,2-a]pyrazin-3-yl)-N-((3S,4S)-4-fluoropyrrolidin-3-yl)pyridin-2-amine] |
| 0.0009 | 0.026 | – | O=S1(=O)CCCN1c1cn2c(-c3cccc(N[C@H]4CNCC[C@@H]4F)n3)cnc2cn1 [Compound 97, 2-(3-(6-(((3S,4S)-4-fluoropiperidin-3-yl)amino)pyridin-2-yl)imidazo[1,2-a]pyrazin-6-yl)isothiazolidine 1,1-dioxide] |
| – | 0.037 | – | O=C1NCCN1c1cn2c(-c3cccc(N[C@H]4CNCC[C@@H]4F)n3)cnc2cn1 [Compound 118, 1-(3-(6-(((3S,4S)-4-fluoropiperidin-3-yl)amino)pyridin-2-yl)imidazo[1,2-a]pyrazin-6-yl)imidazolidin-2-one] |

Reference: US12612410B2 (CHILDREN'S HOSPITAL MEDICAL CENTER, priority 2020, dated 2026)
